In assay [1] the target is T1, CthTpt1 (Acetivibrio thermocellus, UniProt A3DJX6, C46S).
T1 construct: gene kptA; 182-aa polypeptide, His6-tagged, recombinant from E. coli; Leu3-Glu182 modelled; one protomer in the asymmetric unit
The assay is described as follows: X-ray crystal structure, […] Å. Format: binding. The following applies: NAD+ site; CoA absent from RNA lobe; acquired during production in E. coli; pH 8.5.

The target in assay [2] is T2, CthTpt1 (Acetivibrio thermocellus, UniProt A3DJX6).
T2 construct: gene kptA; 182-aa polypeptide, His6-tagged, recombinant from E. coli; Leu3-Glu182 modelled; one protomer in the asymmetric unit
The assay is described as follows: X-ray crystal structure, […] Å. Type of assay: binding. The conditions noted are these: acquired during production in E. coli, pH 6.0.

The target in assay [3] is T3, RslTpt1 (Runella slithyformis, UniProt A0A7U3ZK32, H99A/T101A).
T3 construct: gene kptA; His6-tagged, recombinant from E. coli, Ni-NTA and gel filtration
The assay is described as follows: RNA […]'-phosphotransferase assay, […]-labelled 6-mer RNA, urea-PAGE. Type of assay: biochemical. The following applies: 1 mM NAD+, 0.2 µM 2'-PO4 6-mer RNA, 0.01 µM enzyme, 30 min, pH 7.5, 37 °C.

SMILES strings stand for the structures.

T2 sequence (A3DJX6 whole entry): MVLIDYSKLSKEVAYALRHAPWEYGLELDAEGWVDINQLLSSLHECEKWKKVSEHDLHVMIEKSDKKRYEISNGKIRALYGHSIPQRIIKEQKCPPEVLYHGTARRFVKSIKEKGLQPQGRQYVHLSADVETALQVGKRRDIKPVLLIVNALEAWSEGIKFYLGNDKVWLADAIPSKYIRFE
T1 sequence (A3DJX6 whole entry C46S): as the sequence (A3DJX6 whole entry) above, with C46S counted along it
T3 sequence (A0A7U3ZK32 entry or part of it H99A/T101A): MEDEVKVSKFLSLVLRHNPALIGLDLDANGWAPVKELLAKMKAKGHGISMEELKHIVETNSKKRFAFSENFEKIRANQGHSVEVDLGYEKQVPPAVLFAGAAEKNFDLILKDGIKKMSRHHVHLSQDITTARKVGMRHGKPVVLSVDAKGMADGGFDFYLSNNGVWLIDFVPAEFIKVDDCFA

As to `Nc1ncnc2c1ncn2[C@@H]1O[C@H](COP(=O)(O)OP(=O)(O)OC[C@H]2O[C@H](OP(=O)(O)O)[C@H](O)[C@@H]2O)[C@@H](O)[C@H]1O` [ADP-ribose-1″-phosphate], the “X-ray crystal structure, 1.55 Å” value in assay [1] is on record as “ADP-ribose-1″-phosphate was bound to the NAD^+ lobe”. In addition, the “X-ray crystal structure, 1.4 Å” value in assay [2] (NAD+ site (C-terminal lobe), CoA also bound) is given as “The molecule associated with the C-terminal lobe was unambiguously modeled as ADP-ribose-1″-phosphate”. Consider `NC(=O)c1ccc[n+]([C@@H]2O[C@H](COP(=O)([O-])OP(=O)(O)OC[C@H]3O[C@@H](n4cnc5c(N)ncnc54)[C@H](O)[C@@H]3O)[C@@H](O)[C@H]2O)c1` [NAD^+], for which the “% of input RNA converted to 2′-OH product” value in assay [3] was determined as 4%. `CC(C)(COP(=O)(O)OP(=O)(O)OC[C@H]1O[C@@H](n2cnc3c(N)ncnc32)[C@H](O)[C@@H]1OP(=O)(O)O)[C@@H](O)C(=O)NCCC(=O)NCCS` [coenzyme A]: the “X-ray crystal structure, 1.4 Å” value in assay [2] (covalent (disulfide to Cys46), pAp moiety in RNA site (N-terminal lobe), ADP-ribose-1″-phosphate also bound) is given as “The molecule associated with the N-terminal lobe was convincingly modeled as coenzyme A (CoA)”.

The values are drawn from publication PMC6333775, “Structure of tRNA splicing enzyme Tpt1 illuminates the mechanism of RNA 2′-PO4 recognition and ADP-ribosylation” (Nature Communications, 2019).
